# Results as given in paper PMC6915745, “TRIB3 supports breast cancer stemness by suppressing FOXO1 degradation and enhancing SOX2 transcription” (Nature Communications, 2019).
# Entries after “also recorded” stand apart in the source; their conditions may differ.
# Experiments:
# TRIB3 [1] = experiment: TRIB3 expression after cytokines or stressors, MCF7 cells (WB); assay type: cell-based, human
# Description: (§1) Cycloheximide (CHX; Sigma Aldrich, R750107) was used as a protein synthesis inhibitor to assess the stability of the existing proteins. To assess protein stability, cells were treated with 20 μM CHX and the proteasome inhibitor MG132 (Sigma Aldrich, R750107) at 10 μM or the autophagy inhibitor BAF (Sigma Aldrich, B1793) at 200 nM for the indicated times. Protein expression was assessed via immunoblot analysis with cell lysates (20–60 μg) prepared in RIPA lysis buffer containing protease inhibitors (Roche) using anti-SOX2 (3529), anti-NANOG (4903), anti-OCT4 (2750), anti-KLF4 (4038), anti-c-Myc (13987), anti-FOXO1 (2880), anti-p-FOXO1 (9461), anti-AKT (4685), anti-p-AKT (4060), anti-β-ACTIN (4970), anti-Ubiquitin (3936), or anti-LaminA/C (4777) antibodies from CST; anti-TRIB3 antibody (ab75846) from Abcam; and anti-Trib3 antibody (PA5-15480) from Thermo Fisher Scientific[59]. All antibodies were used at 1:1000 dilution, with the exception of anti-β-Actin antibodies, which were used at 1:2000 dilution. The protein concentrations were determined by BCA Protein Assay Kits (Pierce). Proteins were separated by SDS-polyacrylamide gel electrophoresis (PAGE) and transferred to polyvinylidene difluoride membrane. […]
# (f, g) The expression of
# TRIB3 in MCF7 cells (top) or MDA-MB-231 cells (bottom) treated with various concentrations of IL6 for
# 8 hr (f) or 10 ng/ml IL-6 for different amounts of time (g) was detected by WB. (h) Silencing TRIB3
# decreased the tumor sphere formation ability of MCF7 cells with or without IL-6 stimulation. […]
# Data are shown as the mean ± SEM; P>0.05 was considered not significant (N.S.); *P<0.05, **P<0.01
# and ***P<0.001, compared with the con group in panels d-f. Source data are provided as a Source Data
# TRIB3 [2] = experiment: Relative TRIB3 mRNA in control or FOXO1-silenced MCF7 cells after stressors; assay type: cell-based, human; conditions: FOXO1-shRNA MCF7 cells, in words
# MCF7 cells [3] = experiment: Mammosphere (tumorsphere) formation, MCF7 cells; assay type: cell-based, human; conditions: one week of IL-6, serum-free spheroid suspension culture
# TRIB3 [4] = experiment: TRIB3 expression after IL-6, MDA-MB-231 cells (WB); assay type: cell-based; conditions: various IL-6 concentrations 8 hr, or 10 ng/ml IL-6 for different times
# Description: as §1, with “All antibodies were used at 1:1000 dilution, with the exception of anti-β-Actin antibodies, which were used at 1:2000 dilution.” left out, “(Pierce).” for “(Pierce). Proteins were separated by SDS-polyacrylamide gel electrophoresis (PAGE) and transferred to polyvinylidene difluoride membrane.”
# (GSE12790). Relative amounts of TRIB3 transcripts were measured using the 205805_s_at probe. […]
# levels of TRIB3 mRNA. Metastasis-free survival was determined by Kaplan–Meier analyses, and
# significant differences were determined by log-rank tests. […]
# 24 hr, glucose deprivation (DG) for 12 hr, and high glucose (HG) for 24 hr was detected by Western […]
# 8 hr (f) or 10 ng/ml IL-6 for different amounts of time (g) was detected by WB. […]
# MCF7 cells [5] = experiment: TRIB3/AKT/FOXO1/SOX2 axis after IL-6, CoCl2 or high glucose, MCF7 cells (WB); assay type: cell-based, human; conditions: MCF7 cells, IL-6 12 hr, high glucose 24 hr, WB
substance,measurement,setting,value
IL-6: cytokine interleukin (IL)-6,TRIB3 expression,"TRIB3 [1]; cytokines 8 hr, high glucose 24 hr",enhanced TRIB3 expression in MCF7 cells
same,"TRIB3 expression, dose- and time-dependence","TRIB3 [1]; various IL-6 concentrations 8 hr, or 10 ng/ml IL-6 for different times",enhanced TRIB3 expression in MCF7 and MDA-MB-231 cells in dose-
same,TRIB3 expression in FOXO1-silenced BCCs,TRIB3 [2],could enhance TRIB3 expression in FOXO1-silenced BCCs
same,tumorsphere-formation ability,MCF7 cells [3],increased the tumorsphere-formation ability
same,"TRIB3 expression, dose- and time-dependence",TRIB3 [4],enhanced TRIB3 expression in MCF7 and MDA-MB-231 cells in dose-
same,expressions of FOXO1 and SOX2,MCF7 cells [5]; CoCl2 24 hr,enhance; also recorded: enhanced expressions of FOXO1 and SOX2
same,activity of FOXO1 S256,MCF7 cells [5],reduced the activity of FOXO1^S256
